We go through 4 compounds from PMC4914113, “Another look at the mechanism involving trimeric dUTPases in Staphylococcus aureus pathogenicity island induction involves novel players in the party” (Nucleic Acids Research, 2016).

Assay [1] has as its target Dut80α^G164S (Staphylococcus aureus phage 80α). Put plainly: crystal structure; Dut80α^WT with dUMP (5CCO) and Dut80α^G164S with dUPNPP-Mg (5CCT); space group P2_(1)3, one Dut molecule in the final model; trimers shown in Figure 3.
Assay [2] has as its target Dut80α^WT, wild-type dUTPase of phage 80α (Staphylococcus aureus phage 80α). The assay is described as above.
The target of assay [3] is T1, Dutϕ11 (Staphylococcus phage phi 11, UniProt Q8SDV3).
T1 construct: His6-tagged from pET-28a, E. coli BL21(DE3); trimeric Dut
Put plainly: biolayer interferometry, effect on Stl binding. Particulars: 0.5 mM dUPNPP; SaPIbov1 Stl analyte; pH 7.5, 5 mM MgCl2; competes with Stl.

Assay [4] concerns the target T2, Dut80α (Dubowvirus dv80alpha, UniProt A4ZF98).
T2 construct: His6-tagged from pET-28a, E. coli BL21(DE3); homotrimer; models cover residues 2-168 (dUMP) and 2-170 (G164S)
Put plainly: biolayer interferometry, effect on Stl binding. Particulars: 0.5 mM dUPNPP; SaPIbov1 Stl analyte; pH 7.5, 5 mM MgCl2; competes with Stl. In general terms: Biolayer interferometry detects binding as a change in optical thickness at a sensor tip.

Assay [5] concerns the target T2, Dut80α. Put plainly: X-ray crystallography. Type of assay: binding. The settings on record: 2.33 Å; no nucleotide added to crystallisation; active site.

The term stoichiometry N denotes a count of units in the complex or per binding partner. Dut80α^G164S (enzyme) yielded a stoichiometry N in assay [1] of 3. With “Dut80α^WT, wild-type dUTPase of phage 80α (enzyme)”, the stoichiometry N in assay [2] worked out at 3. In the case of `O=c1ccn([C@H]2C[C@H](O)[C@@H](COP(=O)(O)NP(=O)(O)OP(=O)(O)O)O2)c(=O)[nH]1` [dUPNPP, 2-Deoxyuridine-5-[(α,β)-imido]triphosphate], the “biolayer interferometry, effect on Stl binding” value in assay [3] is listed as “dUPNPP decreased the affinity of the Stl:Dut80α complex by about one order”; in assay [4], “presence of the dUPNPP severely affects the formation of the Stl:Dut80α complex”. For `O=c1ccn([C@H]2C[C@H](O)[C@@H](COP(=O)(O)O)O2)c(=O)[nH]1` [dUMP], in assay [5], the X-ray crystallography result was “structure of the Dut80α^WT bound to the dUMP showed that motif V was ordered”.
